Laboratory results published in patent publication US4503244A, “Sebosuppressive topical cosmetic preparations containing alkoxybenzoic acid esters, process for inhibiting sebum production and alkoxybenzoic acid esters” (Henkel Kommanditgesellschaft, priority 1983, dated 1985).

Tests used:
[1] = system: brown skin surface lipid of the rats; assay: Antiseborrheic effect: browning of the shaved back of rats, visually assessed (half-back application, 14 days); format: in vivo, male Wistar rats; settings: for Sebum reduction: (ΔP/Pk)·100
From the text: The antiseborrheic effect was closely studied using the animal tests described in the following:
The test animals were male Wistar rats having a body weight of 220 to 230 g at the beginning of the tests. The degree of browning on the shaved back of the rats was visually assessed. Browning is produced by the brown skin surface lipid of the rats. This test is based on the observation that young female rats and also male rats washed with a tenside solution or with a lipid solvent and also male rats systematically treated with estrogen only have the normal light, pink-colored skin after shaving. At the same time, only comparatively very small quantities of lipids can be extracted from the shaved hair.
In order to assess effectiveness, the test substances in solution in alcohol were each brushed onto half the back of 6 rats. The other half was only treated with the solvent minus active substances.
Over the test period of 14 days, the test substances were applied once daily for a total of 9 days. A group of 6 rats which remained completely untreated was used for further control. At the end of the test, the animals were shaved on their back and sides and were visually assessed independently by an examination panel of 6 people under double blind conditions.
The first criterion evaluated was whether the majority of examiners correctly recognized the treated side, differentiation being carried out as follows:
The second criterion evaluated was the difference between the righthand side and the lefthand side, each examiner having to award 1 point per animal on the following basis:
lighter side--0 point and
both sides the same--0.5 point
Significant differences between the untreated and treated sides in the second method of evaluation indicate the local effectiveness of a substance.
The third criterion evaluated was the difference in intensity between the shades of brown using the following scale:
In the third method or evaluation, the points total differences are worked out between the untreated control animals and the treated and untreated sides of the test animals, significant differences between the control animals and the treated side of the test animals again indicating the effectiveness of a substance.
At the same time, there is generally also a distinct difference between the untreated and treated sides of the groups of test animals. However, this difference is not always as clear as that between the control animals and the treated sides, for which there may be various reasons, including for example mechanical transfer of substance from one side to the other or solvent influence.
The following scheme was used for differentiating the effects according to evaluation methods 2 and 3:
Percentage sebum reduction
The sebum reduction is calculated from the points difference by working out the quotient between the points difference ΔP and the number of points for the control group Pk and expressing the value obtained in percent.
Sebum reduction=(ΔP/Pk)·100[%]

[2] = system: seborrhea / production of sebum; settings: background art; cited from earlier work

SMILES | Evaluation method 1 (percentage of examiners noticing an effect) ([1]; Conc. 0.1% in alcohol) | Evaluation method 2 (points difference between treated and untreated side) ([1]; Conc. 0.1% in alcohol) | Evaluation method 3 (difference in intensity between shades of brown vs untreated control animals) ([1]; Conc. 0.1% in alcohol) | Sebum reduction ([1]; Conc. 0.1% in alcohol) [%] | Evaluation method 1 (percentage of examiners noticing an effect) ([1]; Conc. 1.0% in alcohol) | Evaluation method 2 (points difference between treated and untreated side) ([1]; Conc. 1.0% in alcohol) | Evaluation method 3 (difference in intensity between shades of brown vs untreated control animals) ([1]; Conc. 1.0% in alcohol) | Sebum reduction ([1]; Conc. 1.0% in alcohol) [%] | also measured
CCCCCCCCCCOc1ccc(C(=O)OCCOC)cc1 [A, p-decyloxybenzoic acid 2-methoxy-ethyl ester] | ++ (100%) | ++ (very large (≥99.9% probability)) | ++ (very large (≥99.9% probability)) | 69 | ++ (100%) | ++ (very large (≥99.9% probability)) | ++ (very large (≥99.9% probability)) | 100 | –
CCCCCCCCCCOc1ccc(C(=O)OCCOCC)cc1 [B, p-decyloxybenzoic acid 2-ethoxy-ethyl ester] | ++ (100%) | ++ (very large (≥99.9% probability)) | ++ (very large (≥99.9% probability)) | 30 | ++ (100%) | ++ (very large (≥99.9% probability)) | ++ (very large (≥99.9% probability)) | 93 | –
CCCCCCCCCCOc1ccc(C(=O)OCCOCCOC)cc1 [C, p-decyloxybenzoic acid 2-(2-methoxyethoxy)-ethyl ester] | ++ (100%) | ++ (very large (≥99.9% probability)) | ++ (very large (≥99.9% probability)) | 26 | ++ (100%) | ++ (very large (≥99.9% probability)) | ++ (very large (≥99.9% probability)) | 100 | –
CCCCCCCCCCOc1ccc(C(=O)OCCO)cc1 [D, p-decyloxybenzoic acid 2-hydroxy-ethyl ester] | – | – | – | – | ++ (100%) | ++ (very large (≥99.9% probability)) | ++ (very large (≥99.9% probability)) | 98 | –
CCCCCCCCCCOc1ccc(C(=O)OCCN(CC)CC)cc1 [E, p-decyloxybenzoic acid 2-diethylaminoethyl ester] | ++ (100%) | ++ (very large (≥99.9% probability)) | ++ (very large (≥99.9% probability)) | 80 | ++ (100%) | ++ (very large (≥99.9% probability)) | ++ (very large (≥99.9% probability)) | 90 | –
CCCCCCCCCCCCOc1ccc(C(=O)OCCOC)cc1 [F, p-dodecyloxybenzoic acid 2-methoxy-ethyl ester] | – | – | – | – | ++ (100%) | ++ (very large (≥99.9% probability)) | ++ (very large (≥99.9% probability)) | 91 | Evaluation method 1 (percentage of examiners noticing an effect) ([1]; Conc. 0.2% in alcohol): ++ (100%); Evaluation method 2 (points difference between treated and untreated side) ([1]; Conc. 0.2% in alcohol): ++ (very large (≥99.9% probability)); Evaluation method 3 (difference in intensity between shades of brown vs untreated control animals) ([1]; Conc. 0.2% in alcohol): ++ (very large (≥99.9% probability)); Sebum reduction ([1]; Conc. 0.2% in alcohol): 92%
CCCCCCCCCCOc1ccc(C(=O)OCC(=O)OC)cc1 [G, p-decyloxybenzoyloxy-acetic acid methyl ester] | – | – | – | – | – | – | – | – | Evaluation method 1 (percentage of examiners noticing an effect) ([1]; Conc. 0.5% in alcohol): ++ (100%); Evaluation method 2 (points difference between treated and untreated side) ([1]; Conc. 0.5% in alcohol): ++ (very large (≥99.9% probability)); Evaluation method 3 (difference in intensity between shades of brown vs untreated control animals) ([1]; Conc. 0.5% in alcohol): ++ (very large (≥99.9% probability)); Sebum reduction ([1]; Conc. 0.5% in alcohol): 82%
CCN(CC)C(=O)c1cccc(C)c1 [N,N-diethyl-m-toluamide] | – | – | – | – | – | – | – | – | sebosuppressive / antiseborrheic effect of known substances [2]: neither N,N-diethyl-m-toluamide nor phenylpentadienoic acid show, however, fully satisfactory sebosuppressive properties
O=C(O)C=CC=Cc1ccccc1 [phenylpentadienoic acid] | – | – | – | – | – | – | – | – | sebosuppressive / antiseborrheic effect of known substances [2]: neither N,N-diethyl-m-toluamide nor phenylpentadienoic acid show, however, fully satisfactory sebosuppressive properties
